Measurements reported in patent EP0559700B1, “NOVEL PILOCARPINE DERIVATIVES AND PROCESS FOR THEIR PREPARATION” (Santen Oy, priority 1990, dated 1992).

Legend:
[1] = Enzyme hydrolysis in plasma/buffer pH 7.4 mixture (80%-20%); assay type: in vitro ADME; conditions: 80% plasma/buffer; plasma/buffer pH 7.4 (80%-20%), 37°C; read-out: half-times (T½) in plasma (80%), 37°C
Description: The half-times of enzyme hydrolysis of the novel bispilocarpates according to the invention and of known pilocarpic acid diesters were determined in a plasma/buffer pH 7.4-mixture (80%-20%) at 37°C. The degradation constants (k) for the compounds tested and determined from the plot showing the logarithm of remaining diester as a function of time and the half-lives T½ are shown in the Table II below. From the results it may be seen that in […] the stable test compound degrades under the influence of an enzyme (esterase) to a O,O'-dihydrogen bispilocarpate intermediate, which spontaneously degrades at pH 7.40 to pilocarpine. Consequently the effect of the bispilocarpate intermediate on the rate of formation of pilocarpine is very significant. The formation of pilocarpine was almost complete irrespective of the epimerization possibility of the intermediate. The amount of isopilocarpine formed varied from 0 to 10%, as also the pilocarpine formed epimerized, if the duration of hydrolysis was very long.

[2] = Lipophilicity: partition coefficient (octanol-buffer) and capacity factor by RP-HPLC; assay type: physicochemical; conditions: pH 5.0
[3] = Stability of the compounds: buffer hydrolysis (half-times, shelf-life); assay type: physicochemical; conditions: buffer, 50 °C
Description: The stability of the test compounds were tested with buffer hydrolyses. The ionic strength (µ) of the buffers was 0.5, the pH-values used 4.2, 6.0, 7.4 and 9.0 and the temperatures used 37°C, 50 °C, 60 °C and 70 °C.
The half-times T½ calculated on basis of the degradation constant k obtained for each studied compound (T½=0.693/k; k = 2.303 x kk, wherein kk is the angular coefficient of the plot which illustrates the logarithm of the remaining ester as a function of time) in a buffer solution of said pH, are indicated in the Table I below, which values refer to half-times at 37°C.
The storage stability of the derivatives under different storage conditions may be estimated by determining the degradation constants at different temperatures and calculating the degradation constant k at the desired temperature from the equation of the plot corresponding to the Arrhenius equation (1), wherein log k is given as a function of [1/T]. Log k = Log A -(Ea)/(2.303R)x(1)/(T) [formula]
From the degradation constant (k) obtained at the desired temperature the shelf-life-time t10% (t10% = 0.104/k) which indicates the time during which 10% of the drug has degraded may be calculated. By way of example it may be mentioned that the t10%-time of O,O'-dipropionyl (1,4-xylylene) bispilocarpate at 4 °C is almost 500 days.

[4] = pKa-value determination by titration in a water-ethanol mixture (50%-50%); assay type: physicochemical; conditions: water-ethanol 50:50; titration in water-ethanol mixture (50%-50%)
[5] = Lipophilicity: partition coefficient (octanol-buffer) and capacity factor by RP-HPLC; assay type: physicochemical; conditions: rp-hplc; reverse phase HPLC, 22°C; read-out: Capacity factor (22°C) k' (converted)
Excerpt: The lipophilicity of the compounds were studied by determining the partition coefficients (P) of the compounds at a pH of 7.40. The measurements were made either in an octanol-buffer mixture by determining the concentration of the compound to be studied in the buffer phase by HPLC. The partition coefficients of the very lipophilic compounds were, however, determined by reverse phase (RP) liquid chromatography (HPLC) from the retention time (Beckmann 116 pump and 166 UV detector; Marathon autom. sample feeder). […] From the results it can be seen that the compounds of the invention are considerably more lipophilic than the pilocarpine.

[6] = Corneal permeability in a diffusion chamber; assay type: in vitro ADME, rabbit; conditions: rabbit eye cornea, diffusion chamber, epithelium side to endothelium side; read-out: Permeability coefficient Papp
Excerpt: The corneal permeability of pilocarpine hydrochloride and its most promising prodrug derivatives as evaluated from the tests described above were studied in a diffusion chamber, wherein the migration of the compound from the delivering phase (epithelium side) thorugh the cornea to the acceptor side (endothelium side) of the diffusion chamber. In the study, rabbit eye cornea was used. From the samples taken from the acceptor side of the diffusion chamber, both the concentration of the prodrug and the liberated drug were determined in the acceptor phase with HPLC. Thus the rate of degradation of the prodrug in the cornea was determined. The permeability coefficients (Papp, cm/s) calculated from the permeability rate (μmol/min), their […] deviations (RSD) and the number of tests, are given in the Table II below.

[7] = administered locally as eyedrops; cited from earlier work
[8] = pH 4.2, pH 4.20, read-out: Chemical hydrolysis t½, pH 4.20 (converted)
[9] = pH 7.4, pH 7.40, read-out: Chemical hydrolysis t½, pH 7.40 (converted)
[10] = pH 6.00, read-out: Chemical hydrolysis t½, pH 6.00 (converted)

Row | half-life [1] | logD [2] | half-life [3, 8] | half-life [3, 9] | half-life [3, 10] | pKa [4] | chromatographic logP [5] | Papp [6] | Structure (SMILES) | pilocarpine dose absorbed by the eye [7] | pilocarpine dose absorbed in the blood stream [7]
1 | 0.00903 days | 0.401 | 193 days | 23 days | 98.7 days |  |  |  | CC[C@H](C(=O)OCCCCCOC(=O)[C@@H](CC)[C@H](COC(=O)C1CC1)Cc1cncn1C)[C@H](COC(=O)C1CC1)Cc1cncn1C [Example 21, O,O'-Dicyclopropylcarbonyl (1,5-pentylene) bispilocarpate] |  | 
2 | 0.0104 days | 0.88 | 134 days | 27.7 days | 142 days | 6 |  |  | CC[C@H](C(=O)OCCCCCCOC(=O)[C@@H](CC)[C@H](COC(=O)C1CC1)Cc1cncn1C)[C@H](COC(=O)C1CC1)Cc1cncn1C [Example 20, O,O'-Dicyclopropylcarbonyl (1,6-hexylene) bispilocarpate] |  | 
3 |  |  |  |  |  |  | -0.392 | 4.1 ×10⁻⁶ cm/s | CC[C@@H]1C(=O)OC[C@@H]1Cc1cncn1C [Pilocarpine, (3S-cis)-3-ethyl-dihydro-4-[(1-methyl-1H-imidazol-5-yl)methyl]-2(3H)-furanone] | about 1% | about 70%
